Experimental data published in patent US20220007644A1, “COMPOSITIONS COMPRISING PYRIDINE CARBOXYLATE HERBICIDES WITH PHOTOSYSTEM II AND OPTIONAL HPPD INHIBITOR HERBICIDES” (Corteva Agriscience LLC, priority 2018, published 2022).
Values joined by “and” are separate entries in the source; they are usually repeats but may differ in a detail not shown here. Equal values may be shown once.

What was measured:
Format in all cases: in vivo
[1] = test system: ABUTH, Abutilon theophrasti (velvetleaf); experiment: Greenhouse postemergence herbicidal effect (visual injury, 20-22 d); settings: for % visual injury, Obs: ABUTH, Compound A 10 g/ha
Description: (§1) Greenhouse Trial Methodology—Evaluation of Postemergence Herbicidal Effect
(§2) Seeds of the desired test plant species were planted in a 90:10% v/v (volume/volume) mixture of PRO-MIX® BX (Premier Tech Horticulture, Quakertown, Pa., USA) and PROFILE®GREENS GRADE™ (Profile Products LLC, Buffalo Grove, Ill., USA) planting mixture, which typically has a pH of 5.2 to 6.2 and an organic matter content of at least 50 percent, in plastic pots with a surface area of 103.2 square centimeters (cm^2). In some aspects, to help ensure good germination and healthy plants, a fungicide treatment and/or other chemical or physical treatment was applied. The plants were grown for 7-36 days (d) in a greenhouse with an approximate 14-hour (h) photoperiod which was maintained at about 23° C. during the day and 22° C. during the night. Nutrients and water were added on a regular basis and supplemental lighting was provided with overhead metal halide 1000-Watt lamps as necessary. The plants were employed for testing when they reached the second or third true leaf stage.
(§3) Emulsifiable concentrates of each of each pyridine carboxylate herbicide (Compound A or Compound B) were prepared at 100 grams acid equivalent per liter (g ae/L). The emulsifiable concentrates also included a safener, cloquintocet-mexyl, at 120 grams active ingredient per liter (g ai/L), unless otherwise noted below. An aliquot of each emulsifiable concentrate was placed in a 25 mL glass vial and diluted with an aqueous mixture of 1.25% (v/v) ACTIROB® B esterified rapeseed oil (Bayer Crop Science, Research Triangle Park, N.C., USA) or MSO® Concentrate with LECI-TECH® methylated soybean oil (Loveland Products, Loveland, Colo., USA) to obtain concentrated stock solutions at the highest application rate for each herbicide, based upon a 12 milliliter (mL) application volume at a rate of 187 liters per hectare (L/ha). The concentrated stock solutions were further diluted with an aqueous mixture of 1.25% v/v ACTIROB® B or MSO® Concentrate with LECI-TECH® to obtain stock solutions at reduced application rates for each herbicide. Spray solutions of the herbicide combinations (Compound A or Compound B plus PS-II herbicide and optional HPPD herbicide) were prepared by adding weighed amounts or aliquots of the PS-II herbicide and optional HPPD herbicide to the stock solutions of Compound A or Compound B to form 12-mL spray solutions in two- or three-way combinations.
(§4) The spray solutions were applied to the plant material with an overhead Mandel track sprayer equipped with 8002E nozzles calibrated to deliver 187 L/ha over an application area of 0.503 square meters (m^2) at a spray height of 18 inches ([…] centimeters (cm)) above the average plant canopy. Control plants were sprayed in the same manner with the solvent blank. All pyridine carboxylate herbicide (component a) application rates are given as “g ae/ha” and all PS II inhibitor herbicide (component b) and HPPD inhibitor herbicide (component c) application rates are given as “g ai/ha.”
(§5) The treated plants and control plants were placed in a greenhouse as described above and watered by sub-irrigation to prevent wash-off of the test compounds. After 20-22 d, the condition of the test plants as compared with that of the control plants was determined visually and scored on a scale of 0 to 100 percent where 0 corresponds to no injury and 100 corresponds to complete kill.

[2] = test system: AMARE, Amaranthus retroflexus (pigweed); experiment: as above
Description: as §1, §2, §3, §4, §5

[3] = test system: AVEFA, Avena fatua (wild oat); experiment: as above
Description: as §1, §2, §3, §4, §5

[4] = test system: BRSNN, Brassica napus (spring rape); experiment: as above
Description: as §1, §2, §3, §4, §5

[5] = test system: BRSNW, Brassica napus (winter rape); experiment: as above
Description: as §1, §2, §3, §4, §5

[6] = test system: CHEAL, Chenopodium album L. (common lambsquarters); experiment: as above
Description: as §1, §2, §3, §4, §5

[7] = test system: CIRAR, Cirsium arvense (Canada thistle); experiment: as above; settings: for % visual injury, Obs: CIRAR, Compound A 10 g/ha
Description: as §1, §2, §3, §4, §5

[8] = test system: HELAN, Helianthus annuus (common sunflower); experiment: as above; settings: Compound A 10 g/ha, without cloquintocet-mexyl safener
Description: as §1, §2, §3, §4, §5

[9] = test system: KCHSC, Kochia scoparia (kochia); experiment: as above
Description: as §1, §2, §3, §4, §5

[10] = test system: LEFCH, Leptochloa chinensis (Chinese sprangletop); experiment: as above; settings: Compound A 10 g/ha, without cloquintocet-mexyl safener
Description: as §1, §2, §3, §4, §5

[11] = test system: LOLMU, Lolium multiflorum (Italian ryegrass); experiment: as above; settings: Compound A 10 g/ha, without cloquintocet-mexyl safener
Description: as §1, §2, §3, §4, §5

[12] = test system: POLCO, Polygonum convolvulus (wild buckwheat); experiment: as above; settings: POLCO, Compound A 10 g/ha
Description: as §1, §2, §3, §4, §5

[13] = test system: RUMOB, Rumex obtusifolius (broad-leaf dock); experiment: as above; settings: Compound A 10 g/ha
Description: as §1, §2, §3, §4, §5

[14] = test system: SETFA, Setaria faberi (giant foxtail); experiment: as above; settings: SETFA, Compound A 10 g/ha
Description: as §1, §2, §3, §4, §5

[15] = test system: SORVU, Sorghum vulgare (grain sorghum); experiment: as above
Description: as §1, §2, §3, §4, §5

[16] = test system: VIOTR, Viola tricolor (wild pansy); experiment: as above
Description: as §1, §2, §3, §4, §5

[17] = test system: HORVS, Hordeum vulgare (spring barley); experiment: Greenhouse postemergence phytotoxicity on crop (visual injury, 20-22 d)
Description: as §1, §2, §3, §4, §5

[18] = test system: TRZAS, Triticum aestivum (spring wheat); experiment: as above
Description: as §1, §2, §3, §4, §5

ZEAMX, Zea mays (maize) = experiment: as above; settings: Compound A 10 g/ha
Description: as §1, §2, §3, §4, §5

[19] = without cloquintocet-mexyl safener

In the case of `N#CCOC(=O)c1nc(-c2ccc3cc[nH]c3c2F)c(F)c(N)c1Cl` [Compound A, cyanomethyl 4-amino-3-chloro-5-fluoro-6-(7-fluoro-1H-indol-6-yl)pyridine-2-carboxylate], the visual injury ([1]; 7.5 g ae/ha alone) is reported as 68%, the visual injury ([1]; 10 g ae/ha alone) is reported as 80% and the “% visual injury, Obs” value [1] is reported as 80%. The “% visual injury, Obs” value [1, 19] was 75%, the visual injury ([2]; 7.5 g ae/ha alone) was 78% and 70% and 90% and the visual injury ([2]; 10 g ae/ha alone) was 73% and 90% and 85%. For the same compound, the “% visual injury, Obs” value ([2]; AMARE, Compound A 10 g/ha) was 88%, the visual injury ([3]; 7.5 g ae/ha alone) was 0% and the visual injury ([3]; 10 g ae/ha alone) was 0%. For the same compound, the “% visual injury, Obs” value ([3]; AVEFA, Compound A 10 g/ha, without cloquintocet-mexyl safener) was 0%, the visual injury ([4]; 10 g ae/ha alone) was 60% and 45% and 73% and the “% visual injury, Obs” value ([4]; BRSNN, Compound A 10 g/ha) was 65%. For the same compound, the visual injury ([5]; 7.5 g ae/ha alone) was 35% and 63%, the visual injury ([5]; 10 g ae/ha alone) was 43% and 68% and 40% and the “% visual injury, Obs” value ([5]; BRSNW, Compound A 10 g/ha, without cloquintocet-mexyl safener) was 65%. For the same compound, the visual injury ([6]; 7.5 g ae/ha alone) was 88% and 70% and 75%, the visual injury ([6]; 10 g ae/ha alone) was 93% and 83% and 78% and 80% and the visual injury ([7]; 10 g ae/ha alone) was 40% and 60% and 30% and 55%. For the same compound, the “% visual injury, Obs” value [7] was 60%, the “% visual injury, Obs” value [7, 19] was 28% and the “% visual injury, Obs” value [8] was 100%. For the same compound, the visual injury ([9]; 7.5 g ae/ha alone) was 63% and 50% and 65% and 70%, the visual injury ([9]; 10 g ae/ha alone) was 63% and 58% and 70% and the “% visual injury, Obs” value ([9]; KCHSC, Compound A 10 g/ha, without cloquintocet-mexyl safener) was 88%. The “% visual injury, Obs” value [10] was 0%, the “% visual injury, Obs” value [11] was 0% and the “% visual injury, Obs” value [12] was 93%. The “% visual injury, Obs” value [12, 19] was 78%, the “% visual injury, Obs” value [13] was 13% and the “% visual injury, Obs” value [13, 19] was 35%. For the same compound, the “% visual injury, Obs” value [14] was 80%, the “% visual injury, Obs” value [14, 19] was 0% and the visual injury ([15]; 7.5 g ae/ha alone) was 0%. The visual injury ([15]; 10 g ae/ha alone) was 0%, the “% visual injury, Obs” value ([15]; SORVU, Compound A 10 g/ha, without cloquintocet-mexyl safener) was 0% and the visual injury ([16]; 7.5 g ae/ha alone) was 45%. The visual injury ([16]; 10 g ae/ha alone) was 15%, the “% visual injury, Obs” value ([16]; VIOTR, Compound A 10 g/ha, without cloquintocet-mexyl safener) was 15% and the visual injury ([17]; 7.5 g ae/ha alone) was 0% and 8%. It also gave a visual injury ([17]; 10 g ae/ha alone) of 0%, a visual injury ([18]; 7.5 g ae/ha alone) of 0% and a visual injury ([18]; 10 g ae/ha alone) of 0%. The “% visual injury, Obs” value ([18]; TRZAS, Compound A 10 g/ha) was 3% and the “% visual injury, Obs” value (ZEAMX, Zea mays (maize)) was 0%.
